Data on 9 molecules can be found in ChEMBL document CHEMBL1132145, “Effects of C-4 stereochemistry and C-4' hydroxylation on the iron clearing efficiency and toxicity of desferrithiocin analogues” (1999).

What all share (type): functional
The subject of experiment [1] is Monkey. Kind of experiment: The compound was tested in vivo for the iron clearing activity against non -iron-overloaded Cebus apella monkey at a concentration of 150 uM/Kg.
Experiment [2] relates to Monkey. The experiment is described as follows: The compound was tested in vivo for the iron clearing activity against non -iron-overloaded Cebus apella monkey at a concentration of 75 uM/Kg.
Experiment [3] deals with Rattus norvegicus. Kind of experiment: The compound was tested in vivo for the iron clearing activity against non-iron-overloaded-bile duct cannulated rat, at a concentration of 150 uM/Kg.
In experiment [4] the test system is Monkey. Kind of experiment: The compound was tested in vivo for the iron clearing activity against non -iron-overloaded Cebus apella monkey at a concentration of 150 uM/Kg.
Experiment [5] has as its system Monkey. Kind of experiment: The compound was tested in vivo for the iron clearing activity against non -iron-overloaded Cebus apella monkey at a concentration of 150 uM/Kg, with distilled water.
For experiment [6], the system named is Monkey. Kind of experiment: The compound was tested in vivo for the iron clearing activity against non -iron-overloaded Cebus apella monkey at a concentration of 300 uM/Kg.
For experiment [7], the system named is Monkey. Kind of experiment: The compound was tested in vivo for the iron clearing activity against non -iron-overloaded Cebus apella monkey at a concentration of 300 uM/Kg with distilled water.
Experiment [8] has as its system Monkey. Kind of experiment: The compound was tested in vivo for the iron clearing activity against non -iron-overloaded Cebus apella monkey at a concentration of 300 uM/Kg.
The subject of experiment [9] is Monkey. The experiment is described as follows: The compound was tested in vivo for the iron clearing activity against non-iron-overloaded Cebus apella monkey, values in parentheses indicate the % breakdown of iron excreted in stool and urine, at a concentration of 75 uM/Kg.
In experiment [10] the test system is Monkey. Kind of experiment: The compound was tested in vivo for the iron clearing activity against non-iron-overloaded Cebus apella monkey, values in parentheses indicate the % breakdown of iron excreted in stool and urine, at a concentration of 300 uM/Kg.
Experiment [11] has as its system Rattus norvegicus. The experiment is described as follows: The compound was tested in vivo for the iron clearing activity against non-iron-overloaded-bile duct cannulated rat, at a concentration of 150 uM/Kg(po).

With `C[C@]1(C(=O)O)CSC(c2ccc(O)cc2O)=N1` [DEFERITRIN], the Efficiency is recorded as 13.4% in experiment [1], 17.7% in experiment [2] and under 0.5% in [3].
`C[C@]1(C(=O)O)CSC(c2ncccc2O)=N1` [DESFERRITHIOCIN]: the Efficiency was found to be 16.1% in [4] and 5.5% in experiment [3].
`O=C(O)[C@H]1CSC(c2ccc(O)cc2O)=N1`: the Efficiency is on record as 4.2% in [4]; 5.6% in [5]; 5.6% in experiment [6]; 4.8% in experiment [7]; 2.4% in experiment [3].
For the molecule `O=C(O)[C@@H]1CSC(c2ncccc2O)=N1`, the Efficiency in experiment [4] was determined as 0.5%; in experiment [3] it was 3.9%.
For the molecule `O=C(O)[C@H]1CSC(c2ncccc2O)=N1`, the Efficiency turned out to be 4.8% in experiment [4], 2.4% in [3] and 8% in experiment [8].
In the case of `C[C@]1(C(=O)O)CSC(c2ccccc2O)=N1`, the Efficiency is reported as 21.5% in experiment [9], 2.7% in experiment [3] and 13.1% in experiment [8].
As to `O=C(O)[C@@H]1CSC(c2ccccc2O)=N1`, the Efficiency in [10] came to 8.2%; in experiment [3], 4.2%.
On to `O=C(O)[C@H]1CSC(c2ccccc2O)=N1`, for which the Efficiency in [3] was determined as 1.4%; in experiment [8] it was 12.4%.
As to `O=C(O)[C@@H]1CSC(c2ccc(O)cc2O)=N1`, the Efficiency in experiment [1] was 1.7%; in experiment [11] it was under 0.5%.
